These results are taken from ChEMBL document CHEMBL3407356, “Design, synthesis, biological evaluation and molecular modeling of dihydropyrazole sulfonamide derivatives as potential COX-1/COX-2 inhibitors” (Bioorg Med Chem Lett, 2015).

pIC50: −log10 of the molar value.

Series [1] is described as follows: Antiproliferative activity against mouse B16F10 cells after 24 hrs by MTT assay. The settings on record: B16-F10, 24 h. It is filed as functional, cell-based.
A further series concerns MCF7. The series is described as follows: Antiproliferative activity against human MCF7 cells after 24 hrs by MTT assay. Format: functional, cell-based. To be noted: MCF7, 24 h. Background: Formazan colour is commonly taken as a measure of viable cells.
Another series has as its system HeLa. The series is described as follows: Antiproliferative activity against human HeLa cells after 24 hrs by MTT assay. Format: functional, cell-based.
Series [2] concerns the target Prostaglandin G/H synthase 1 (Homo sapiens, UniProt P23219). The series is described as follows: Inhibition of human recombinant COX1 by ELISA. For orientation: ELISA stands for enzyme-linked immunosorbent assay.
In series [3] the target is T1, Prostaglandin G/H synthase 2 (Homo sapiens, UniProt P35354).
T1 sequence (P35354 whole entry): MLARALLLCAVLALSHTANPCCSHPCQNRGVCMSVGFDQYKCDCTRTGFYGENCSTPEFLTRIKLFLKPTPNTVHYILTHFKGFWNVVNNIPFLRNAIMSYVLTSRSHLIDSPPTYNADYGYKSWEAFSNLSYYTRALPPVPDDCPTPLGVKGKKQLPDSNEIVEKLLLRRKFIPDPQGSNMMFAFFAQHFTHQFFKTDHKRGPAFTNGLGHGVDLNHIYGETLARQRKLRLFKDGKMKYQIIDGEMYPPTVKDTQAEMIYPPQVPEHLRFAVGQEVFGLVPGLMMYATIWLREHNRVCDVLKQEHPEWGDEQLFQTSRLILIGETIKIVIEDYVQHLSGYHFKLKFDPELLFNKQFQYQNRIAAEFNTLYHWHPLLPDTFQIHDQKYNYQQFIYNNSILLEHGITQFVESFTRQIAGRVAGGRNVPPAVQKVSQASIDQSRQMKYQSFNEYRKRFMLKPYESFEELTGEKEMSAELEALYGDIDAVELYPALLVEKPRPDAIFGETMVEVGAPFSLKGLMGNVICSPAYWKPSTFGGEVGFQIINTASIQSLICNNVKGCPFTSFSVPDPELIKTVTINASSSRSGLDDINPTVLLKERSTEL
The series is described as follows: Inhibition of human recombinant COX2 by ELISA.

Series [4] is described as follows: Cytotoxicity against human 293T cells after 24 hrs by MTT assay. It is filed as cell-based. To be noted: HEK-293T cells.

Sequence of Prostaglandin G/H synthase 1 (P23219 whole entry): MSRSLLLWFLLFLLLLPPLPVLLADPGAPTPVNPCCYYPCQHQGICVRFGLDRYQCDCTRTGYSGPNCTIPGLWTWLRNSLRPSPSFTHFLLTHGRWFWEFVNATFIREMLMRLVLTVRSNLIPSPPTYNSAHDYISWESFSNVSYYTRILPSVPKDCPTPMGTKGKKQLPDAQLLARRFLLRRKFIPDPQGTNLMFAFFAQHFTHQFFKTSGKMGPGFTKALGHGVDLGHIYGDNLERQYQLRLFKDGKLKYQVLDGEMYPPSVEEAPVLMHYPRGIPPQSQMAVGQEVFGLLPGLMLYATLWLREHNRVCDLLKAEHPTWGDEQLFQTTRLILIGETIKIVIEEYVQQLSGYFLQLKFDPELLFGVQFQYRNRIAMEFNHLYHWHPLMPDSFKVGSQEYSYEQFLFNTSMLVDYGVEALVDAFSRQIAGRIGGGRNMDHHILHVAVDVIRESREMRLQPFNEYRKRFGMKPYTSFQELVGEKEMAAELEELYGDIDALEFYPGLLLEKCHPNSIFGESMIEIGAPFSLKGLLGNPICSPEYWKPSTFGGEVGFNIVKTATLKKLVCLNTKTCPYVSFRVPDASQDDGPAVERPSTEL

The pIC50 is the IC50 on a negative log10 scale, so that one unit is a factor of ten. Broadly, the CC50 is the concentration that lowers cell viability or growth by half. For the compound `COc1cccc(C2C3CCc4ccccc4C3=NN2c2ccc(S(N)(=O)=O)cc2)c1` (configuration not stated), the pIC50 in series [1] was 5.75; in the series on MCF7 it was 4.98; in the series with HeLa it was 4.72; in series [2], 4.07; in series [3] it was 5.95. The compound further returned a CC50 at 24 h in series [4] of 68.2 µM.

`NS(=O)(=O)c1ccc(N2N=C3c4ccccc4OCC3C2c2ccccc2Br)cc1` (configuration not stated): the pIC50 is 4.92 in series [1]; 4.56 in the series with MCF7; 5.53 in the series on HeLa; 4.04 in series [2]; 5.90 in series [3]. In series [4], this compound gave a CC50 at 24 h of 81.6 µM.

In the case of `NS(=O)(=O)c1ccc(N2N=C3c4ccccc4OCC3C2c2ccc(Br)cc2)cc1` (configuration not stated), the pIC50 was 5.14 in series [1]; 4.34 in the series on MCF7; 5.08 with HeLa; less than 4.00 in series [2]; 5.16 in series [3]. Half-maximal cytotoxicity in series [4] (CC50 at 24 h) was put at 63.2 µM.

For the compound `NS(=O)(=O)c1ccc(N2N=C3c4ccccc4OCC3C2c2ccccc2F)cc1` (configuration not stated), the pIC50 in series [1] is 4.45; in the series on MCF7, 4.52; with HeLa, 5.01; in series [2], less than 4.00; in series [3] it was 5.14. Moreover, in series [4], the CC50 at 24 h is 70.5 µM.

For the compound `NS(=O)(=O)c1ccc(N2N=C3c4ccccc4OCC3C2c2ccc(Cl)cc2)cc1` (configuration not stated), the pIC50 in series [1] is 5.42; in the series with MCF7 it was 4.55; with HeLa it was 5.11; in series [2], less than 4.00; in series [3], 5.08. In series [4], this compound came in with a CC50 at 24 h of 61.4 µM.

For the compound `NS(=O)(=O)c1ccc(N2N=C3c4ccccc4CCC3C2c2ccccc2Cl)cc1` (configuration not stated), the pIC50 is 4.70 in series [1]; 4.59 with MCF7; 4.86 in the series on HeLa; less than 4.00 in series [2]; 5.31 in series [3]. Moreover, the CC50 at 24 h in series [4] was found to be 65.3 µM.

With `NS(=O)(=O)c1ccc(N2N=C3c4ccccc4CCC3C2c2ccc(C(F)(F)F)cc2)cc1` (configuration not stated), the pIC50 in series [1] is 5.24; in the series with MCF7, 4.47; with HeLa, 4.95; in series [2] it was less than 4.00; in series [3] it was 4.74. The compound also yielded a CC50 at 24 h in series [4] of 55.2 µM.

Consider `NS(=O)(=O)c1ccc(N2N=C3c4ccccc4CCC3C2c2ccc(Cl)cc2Cl)cc1` (configuration not stated), for which the pIC50 in series [1] was 4.27; in the series on MCF7, 4.86; in the series with HeLa, 5.45; in series [2], less than 4.00; in series [3] it was 4.49. The CC50 at 24 h in series [4] worked out at 64 µM.

On to `NS(=O)(=O)c1ccc(N2N=C3c4ccccc4OCC3C2c2ccc(Cl)cc2Cl)cc1` (configuration not stated), for which the negative-log IC50 (pIC50) was 5.32 in series [1]; 4.33 with MCF7; 4.76 in the series with HeLa; 4.02 in series [2]; 5.56 in series [3]. This compound displayed a CC50 at 24 h in series [4] of 57.1 µM.

For `Cc1ccc(C2C3CCc4ccccc4C3=NN2c2ccc(S(N)(=O)=O)cc2)cc1` (configuration not stated), the pIC50 in series [1] is 4.77; with MCF7 it was 5.37; in the series on HeLa, 5.01; in series [2], 4.05; in series [3], 5.67. The same compound displayed a CC50 at 24 h in series [4] of 63.6 µM.

Take `NS(=O)(=O)c1ccc(N2N=C3c4ccccc4CCC3C2c2ccc(Br)cc2)cc1` (configuration not stated): the pIC50 in series [1] is 4.54; with MCF7, 4.44; in the series with HeLa, 5.20; in series [2], less than 4.00; in series [3], 4.58. Also, the CC50 at 24 h in series [4] worked out at 69.3 µM.

Regarding `Cc1ccccc1C1C2COc3ccccc3C2=NN1c1ccc(S(N)(=O)=O)cc1` (configuration not stated), the pIC50 is 4.65 in series [1]; 4.39 in the series with MCF7; 4.44 in the series with HeLa; 4.23 in series [2]; 6.34 in series [3]. In series [4], this compound registered a CC50 at 24 h of 64.8 µM.

As to `NS(=O)(=O)c1ccc(N2N=C3c4ccccc4CCC3C2c2ccccc2)cc1` (configuration not stated), the pIC50 is 5.30 in series [1]; 5.27 in the series with MCF7; 4.59 in the series with HeLa; less than 4.00 in series [2]; 5.08 in series [3]. Also, in series [4], it took 66.9 µM to reach half-maximal cytotoxicity (CC50 at 24 h).

Turning to `NS(=O)(=O)c1ccc(N2N=C3c4ccccc4CCC3C2c2ccccc2F)cc1` (configuration not stated), the pIC50 in series [1] is 5.50; with MCF7, 4.88; in the series with HeLa, 4.43; in series [2] it was less than 4.00; in series [3], 4.92. For the same compound, in series [4], it took 57.9 µM to reach half-maximal cytotoxicity (CC50 at 24 h).

Take `COc1ccccc1C1C2COc3ccccc3C2=NN1c1ccc(S(N)(=O)=O)cc1` (configuration not stated): the pIC50 in series [1] is 4.99; in the series with MCF7 it was 4.37; in the series on HeLa, 4.86; in series [2], 4.16; in series [3] it was 6.48. In series [4], the cytotoxic concentration (CC50) at 24 h is 83.2 µM.

For `COc1ccccc1C1C2CCc3ccccc3C2=NN1c1ccc(S(N)(=O)=O)cc1` (configuration not stated), the pIC50 in series [1] was 4.93; in the series with MCF7 it was 4.23; in the series on HeLa it was 4.84; in series [2], 4.02; in series [3], 5.58. In series [4], this compound returned a CC50 at 24 h of 67.2 µM.

For `NS(=O)(=O)c1ccc(N2N=C3c4ccccc4OCC3C2c2ccccc2Cl)cc1` (configuration not stated), the pIC50 was 4.92 in series [1]; 4.62 in the series on MCF7; 4.88 in the series on HeLa; 4.06 in series [2]; 5.64 in series [3]. Besides, the CC50 at 24 h in series [4] is 75 µM.

Turning to `Cc1cccc(C2C3CCc4ccccc4C3=NN2c2ccc(S(N)(=O)=O)cc2)c1` (configuration not stated), the pIC50 was 5.04 in series [1]; 4.53 in the series on MCF7; 4.74 in the series on HeLa; 4.04 in series [2]; 5.61 in series [3]. The same compound yielded a CC50 at 24 h in series [4] of 67.2 µM.

As to `Cc1ccc(-c2cc(C(F)(F)F)nn2-c2ccc(S(N)(=O)=O)cc2)cc1` [CELECOXIB], the pIC50 was 5.34 in series [1], 5.23 in the series with MCF7 and 5.13 in the series with HeLa. Further, in series [4], the CC50 at 24 h is 72.4 µM.

In the case of `COc1ccc(C2C3COc4ccccc4C3=NN2c2ccc(S(N)(=O)=O)cc2)cc1` (configuration not stated), the negative-log IC50 (pIC50) was 4.80 in series [1]; 4.69 with MCF7; 5.14 in the series with HeLa; 4.11 in series [2]; 5.99 in series [3]. This compound came in with a CC50 at 24 h in series [4] of 69.5 µM.

Take `NS(=O)(=O)c1ccc(N2N=C3c4ccccc4CCC3C2c2ccccc2Br)cc1` (configuration not stated): the pIC50 was 5.45 in series [1]; 5.23 in the series with MCF7; 5.14 in the series with HeLa; less than 4.00 in series [2]; 4.90 in series [3]. This compound came in with a CC50 at 24 h in series [4] of 61.1 µM.

As to `NS(=O)(=O)c1ccc(N2N=C3c4ccccc4CCC3C2c2cccc(Br)c2)cc1` (configuration not stated), the pIC50 in series [1] is 4.55; in the series with MCF7, 4.27; in the series on HeLa, 4.93; in series [2] it was 4.00; in series [3], 5.46. For the same compound, the CC50 at 24 h in series [4] worked out at 52.6 µM.

On to `NS(=O)(=O)c1ccc(N2N=C3c4ccccc4CCC3C2c2ccc(F)cc2)cc1` (configuration not stated), for which the pIC50 in series [1] was 5.51; in the series with MCF7, 5.16; with HeLa it was 4.65; in series [2], less than 4.00; in series [3], 4.81. This compound came in with a CC50 at 24 h in series [4] of 59.8 µM.

Turning to `COc1cc2ncnc(Nc3ccc(F)c(Cl)c3)c2cc1OCCCN1CCOCC1` [GEFITINIB], in series [4], the midpoint of cytotoxicity, the CC50 at 24 h, lay at 52 µM.

For the compound `NS(=O)(=O)c1ccc(N2N=C3c4ccccc4OCC3C2c2c(F)cccc2Cl)cc1` (configuration not stated), the pIC50 in series [1] is 5.07; with MCF7, 4.39; in the series with HeLa, 5.11; in series [2], less than 4.00; in series [3], 4.79. In series [4], this compound registered a CC50 at 24 h of 66.2 µM.

On to `NS(=O)(=O)c1ccc(N2N=C3c4ccccc4CCC3C2c2cccc(O)c2)cc1` (configuration not stated), for which the pIC50 in series [1] is 4.48; in the series with MCF7, 4.96; with HeLa it was 5.32; in series [2], 4.06; in series [3], 5.75. Moreover, in series [4], the CC50 at 24 h amounted to 69.2 µM.

With `NS(=O)(=O)c1ccc(N2N=C3c4ccccc4CCC3C2c2c(F)cccc2Cl)cc1` (configuration not stated), the pIC50 was 4.43 in series [1]; 4.61 in the series with MCF7; 5.28 in the series on HeLa; 4.00 in series [2]; 5.44 in series [3]. In addition, half-maximal cytotoxicity in series [4] (CC50 at 24 h) was put at 68.3 µM.

Take `NS(=O)(=O)c1ccc(N2N=C3c4ccccc4CCC3C2c2cccc(F)c2)cc1` (configuration not stated): the pIC50 in series [1] is 4.95; in the series on MCF7, 4.23; with HeLa it was 5.30; in series [2], less than 4.00; in series [3], 5.32. The compound further gave a CC50 at 24 h in series [4] of 57.9 µM.

As to `Cc1ccccc1C1C2CCc3ccccc3C2=NN1c1ccc(S(N)(=O)=O)cc1` (configuration not stated), the pIC50 in series [1] was 5.53; in the series with MCF7, 5.08; with HeLa, 4.52; in series [2] it was 4.00; in series [3] it was 5.48. In series [4], the CC50 at 24 h worked out at 70.8 µM.
